Reference: patent publication US9365522B2, “Pyrazole amide derivative” (AMGEN INC., priority 2015, dated 2016)

Each compound was assayed against T1, ligand binding domain of human ROR gamma (Homo sapiens, UniProt P51449) (assay: ROR gamma reporter gene assay (GAL4-RORγ LBD luciferase, Dual-Glo)). Settings: HEK293T cells transfected with pM-ROR gamma, 8 concentrations 3.5 nM to 10.5 μM, 24 h incubation; read-out: result (pIC50, inhibition of RORγ transcriptional activity) (converted).
T1 construct: NM_001001523; expressed in transfected cells; host or cells: HEK293T
T1 sequence (P51449 247-497 isoform P51449-2): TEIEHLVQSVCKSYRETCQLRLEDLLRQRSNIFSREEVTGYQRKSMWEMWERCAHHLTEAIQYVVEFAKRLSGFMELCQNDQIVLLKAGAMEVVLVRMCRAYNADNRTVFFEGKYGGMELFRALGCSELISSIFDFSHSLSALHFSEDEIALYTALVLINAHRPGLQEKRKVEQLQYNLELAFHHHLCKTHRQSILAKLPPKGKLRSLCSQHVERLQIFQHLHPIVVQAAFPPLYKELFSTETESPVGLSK
Assay type: cell-based
Summary of the method: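 Inhibition of RORγ-driven transcription was measured in HEK293T cells expressing a GAL4 fusion of the human RORγ LBD (aa 247-497), with renilla luciferase as internal control. Cells in 10% charcoal-stripped serum received compound (3.5 nM–10.5 μM) for 24 h.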

Going from `C[C@]1(C(=O)O)CC[C@H](n2ncc(C(=O)N(Cc3cc(F)cc(F)c3)C[C@H](F)c3c(Cl)cccc3Cl)c2C(F)(F)F)CC1` [Example 138, trans-4-(4-(((2R)-2-(2,6-dichlorophenyl)-2-fluoroethyl)-((3,5-difluorophenyl)methyl)carbamoyl)-5-(trifluoromethyl)pyrazol-1-yl)-1-methylcyclohexane-1-carboxylic acid] to `C[C@]1(C(=O)O)CC[C@H](n2ncc(C(=O)N(Cc3cc(F)cc(F)c3)C[C@@H](F)c3c(Cl)cccc3Cl)c2C(F)(F)F)CC1` [Example 139, trans-4-(4-(((2S)-2-(2,6-dichlorophenyl)-2-fluoroethyl)-((3,5-difluorophenyl)methyl)carbamoyl)-5-(trifluoromethyl)pyrazol-1-yl)-1-methylcyclohexane-1-carboxylic acid], the IC50 rises from 7240 pM to 17400 pM (2.4-fold).

Going from `CC(C)(C)CC1CC(CN(CC(=O)c2c(Cl)cncc2Cl)C(=O)c2cnn([C@H]3CC[C@H](C(=O)O)CC3)c2C(F)(F)F)C1` (stereo partly drawn) [Example 140, trans-4-(4-((2-(3,5-dichloropyridin-4-yl)-2-oxoethyl)-((3-(2,2-dimethylpropyl)cyclobutyl)methyl)carbamoyl)-5-(trifluoromethyl)pyrazol-1-yl)cyclohexane-1-carboxylic acid] to `CC(C)(C)O[C@H]1C[C@@H](N(CC(=O)c2c(Cl)cncc2Cl)C(=O)c2cnn([C@H]3CC[C@H](C(=O)O)CC3)c2C(F)(F)F)C1` [Example 155, trans-4-(4-((2-(3,5-dichloropyridin-4-yl)-2-oxoethyl)-(3-((2-methylpropan-2-yl)oxy)cyclobutyl)carbamoyl)-5-(trifluoromethyl)pyrazol-1-yl)cyclohexane-1-carboxylic acid], the IC50 rises from 200000 pM to 5.13e+06 pM (26-fold).

Going from `Nc1ccccc1C(=O)CN(Cc1cc(F)cc(F)c1)C(=O)c1cnn([C@H]2CC[C@H](C(=O)O)CC2)c1C(F)(F)F` [Example 142, trans-4-(4-((2-(2-aminophenyl)-2-oxoethyl)-((3,5-difluorophenyl)methyl)carbamoyl)-5-(trifluoromethyl)pyrazol-1-yl)cyclohexane-1-carboxylic acid] to `Cc1ccc(N)c(C(=O)CN(Cc2cc(F)cc(F)c2)C(=O)c2cnn([C@H]3CC[C@H](C(=O)O)CC3)c2C(F)(F)F)c1` [Example 143, trans-4-(4-((2-(2-amino-5-methylphenyl)-2-oxoethyl)-((3,5-difluorophenyl)methyl)carbamoyl)-5-(trifluoromethyl)pyrazol-1-yl)cyclohexane-1-carboxylic acid], the IC50 falls from 6.61e+06 pM to 2.24e+06 pM (3-fold).

`CC(C)(C)OCCN(CC(=O)c1c(Cl)cc(C(F)(F)F)cc1Cl)C(=O)c1cnn([C@H]2CC[C@H](C(=O)O)CC2)c1C(F)(F)F` [Example 144, trans-4-(4-((2-(2,6-dichloro-4-(trifluoromethyl)phenyl)-2-oxoethyl)-(2-((2-methylpropan-2-yl)oxy)ethyl)carbamoyl)-5-(trifluoromethyl)pyrazol-1-yl)cyclohexane-1-carboxylic acid] and `CC(C)(C)OCCN(CC(=O)c1c(Cl)cc(C(F)(F)F)cc1Cl)C(=O)c1cnn([C@H]2CC[C@](C)(C(=O)O)CC2)c1C(F)(F)F` [Example 149, trans-4-(4-((2-(2,6-dichloro-4-(trifluoromethyl)phenyl)-2-oxoethyl)-(2-((2-methylpropan-2-yl)oxy)ethyl)carbamoyl)-5-(trifluoromethyl)pyrazol-1-yl)-1-methylcyclohexane-1-carboxylic acid] are within 1.5-fold of each other in IC50: 87100 pM for the first, 60300 pM for the second.

Going from `O=C(CN(Cc1cncnc1)C(=O)c1cnn([C@H]2CC[C@H](C(=O)O)CC2)c1C(F)(F)F)c1c(Cl)cccc1Cl` [Example 146, trans-4-(4-((2-(2,6-dichlorophenyl)-2-oxoethyl)-(pyrimidin-5-ylmethyl)carbamoyl)-5-(trifluoromethyl)pyrazol-1-yl)cyclohexane-1-carboxylic acid] to `O=C(CN(Cc1ccnnc1)C(=O)c1cnn([C@H]2CC[C@H](C(=O)O)CC2)c1C(F)(F)F)c1c(Cl)cccc1Cl` [Example 151, trans-4-(4-((2-(2,6-dichlorophenyl)-2-oxoethyl)-(pyridazin-4-ylmethyl)carbamoyl)-5-(trifluoromethyl)pyrazol-1-yl)cyclohexane-1-carboxylic acid], the IC50 rises from 148000 pM to 8.13e+06 pM (55-fold).

Going from `O=C(CN(Cc1ccccc1O)C(=O)c1cnn([C@H]2CC[C@H](C(=O)O)CC2)c1C(F)(F)F)c1c(Cl)cncc1Cl` [Example 147, trans-4-(4-((2-(3,5-dichloropyridin-4-yl)-2-oxoethyl)-((2-hydroxyphenyl)methyl)carbamoyl)-5-(trifluoromethyl)pyrazol-1-yl)cyclohexane-1-carboxylic acid] to `O=C(CN(Cc1cccc(O)c1)C(=O)c1cnn([C@H]2CC[C@H](C(=O)O)CC2)c1C(F)(F)F)c1c(Cl)cncc1Cl` [Example 153, trans-4-(4-((2-(3,5-dichloropyridin-4-yl)-2-oxoethyl)-((3-hydroxyphenyl)methyl)carbamoyl)-5-(trifluoromethyl)pyrazol-1-yl)cyclohexane-1-carboxylic acid], the IC50 falls from 347000 pM to 209000 pM (1.7-fold).

Compared with `CC(C)(C)c1c(C(=O)N(CC(=O)c2c(Cl)cncc2Cl)Cc2cc(F)cc(F)c2)cnn1[C@H]1CC[C@H](C(=O)O)CC1` [Example 148, trans-4-(5-tert-butyl-4-((2-(3,5-dichloropyridin-4-yl)-2-oxoethyl)-((3,5-difluorophenyl)methyl)carbamoyl)pyrazol-1-yl)cyclohexane-1-carboxylic acid], `CC[C@]1(C(=O)O)CC[C@H](n2ncc(C(=O)N(CC(=O)c3c(Cl)cncc3Cl)Cc3cc(F)cc(F)c3)c2C(F)(F)F)CC1` [Example 156, trans-4-(4-((2-(3,5-dichloropyridin-4-yl)-2-oxoethyl)-((3,5-difluorophenyl)methyl)carbamoyl)-5-(trifluoromethyl)pyrazol-1-yl)-1-ethylcyclohexane-1-carboxylic acid] is 2.1-fold higher in IC50: 479000 pM for the first, 1.02e+06 pM for the second.

First: O=C(CN(CC1(C(F)(F)F)CC1)C(=O)c1cnn([C@H]2CC[C@H](C(=O)O)CC2)c1C(F)(F)F)c1c(Cl)cncc1Cl [Example 150, trans-4-(4-((2-(3,5-dichloropyridin-4-yl)-2-oxoethyl)-((1-(trifluoromethyl)cyclopropyl)methyl)carbamoyl)-5-(trifluoromethyl)pyrazol-1-yl)cyclohexane-1-carboxylic acid]
Second: CN1CCC(CN(CC(=O)c2c(Cl)cncc2Cl)C(=O)c2cnn([C@H]3CC[C@H](C(=O)O)CC3)c2C(F)(F)F)CC1 [Example 154, trans-4-(4-((2-(3,5-dichloropyridin-4-yl)-2-oxoethyl)-((1-methylpiperidin-4-yl)methyl)carbamoyl)-5-(trifluoromethyl)pyrazol-1-yl)cyclohexane-1-carboxylic acid]
The IC50 of the first is lower: 53700 pM for the first, > 1e+07 pM for the second.

In the case of `O=C(CN(Cc1cc(F)cc(F)c1)C(=O)c1cnn([C@H]2CC[C@H](C(=O)O)CC2)c1C(F)(F)F)c1ncc(C(F)(F)F)cc1Cl` [Example 152, trans-4-(4-((2-(3-chloro-5-(trifluoromethyl)pyridin-2-yl)-2-oxoethyl)-((3,5-difluorophenyl)methyl)carbamoyl)-5-(trifluoromethyl)pyrazol-1-yl)cyclohexane-1-carboxylic acid], the IC50 is reported as 2.82e+06 pM.
